Experimental data: ChEMBL document CHEMBL1201862, “PubChem BioAssay data set” (2004)
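Method: 48-hour compound exposure of cells in 96-well plates, five concentrations, linear interpolation of endpoints. GI50 = concentration required for 50% inhibition of growth.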 Active and inactive are the calls of the source. No stated cut-off is given here; in the data, active = GI50 up to about 1.1 µM and inactive = higher.

Tests used:
Assay in all cases: inhibition of tumour cell growth, NCI panel, 48 h
[1] = test system: 786-0
[2] = test system: A498
[3] = test system: A549
[4] = test system: ACHN
[5] = test system: BT-549
[6] = test system: CAKI-1
[7] = test system: COLO 205
[8] = test system: DU-145
[9] = test system: EKVX
[10] = test system: HCT-116
[11] = test system: HCT-15
[12] = test system: HL-60
[13] = test system: HOP-62
[14] = test system: HOP-92
[15] = test system: HT-29
[16] = test system: Hs-578T
[17] = test system: IGROV-1
[18] = test system: K562
[19] = test system: KM12
[20] = test system: LOX IMVI
[21] = test system: M14
[22] = test system: MCF7
[23] = test system: MDA-MB-231
[24] = test system: MDA-MB-435
[25] = test system: MOLT-4
[26] = test system: Malme-3M
[27] = test system: NCI-H226
[28] = test system: NCI-H23
[29] = test system: NCI-H522
[30] = test system: NCI/ADR-RES
[31] = test system: OVCAR-3
[32] = test system: OVCAR-4
[33] = test system: OVCAR-5
[34] = test system: OVCAR-8
[35] = test system: PC-3
[36] = test system: RPMI-8226
[37] = test system: RXF 393
[38] = test system: SF-268
[39] = test system: SF-295
[40] = test system: SK-MEL-28
[41] = test system: SK-MEL-2
[42] = test system: SK-MEL-5
[43] = test system: SK-OV-3
[44] = test system: SN12C
[45] = test system: SNB-19
[46] = test system: SR
[47] = test system: SW-620
[48] = test system: T47D
[49] = test system: TK-10
[50] = test system: U-251
[51] = test system: UACC-257
[52] = test system: UACC-62
[53] = test system: UO-31
[54] = test system: CCRF-CEM
[55] = test system: HCC 2998
[56] = test system: MDA-N
[57] = test system: NCI-H460

With `CC(C)CC1c2[nH]c3ccccc3c2C[C@H]2C(=O)NC(Cc3c[nH]c4ccccc34)C(=O)N12` (stereo partly drawn) the GI50 [1] was 17.5 µM (inactive), the GI50 [2] was 16.8 µM (inactive) and the GI50 [3] was 12.5 µM (inactive). The GI50 [4] was 17.8 µM (inactive), the GI50 [5] was 16.9 µM (inactive) and the GI50 [6] was 23.7 µM (inactive). The GI50 [7] was 17.8 µM (inactive), the GI50 [8] was 20.3 µM (inactive) and the GI50 [9] was 16 µM (inactive). The GI50 [10] was 11.2 µM (inactive), the GI50 [11] was 14.6 µM and the GI50 [12] was 11.8 µM (inactive). The GI50 [13] was 20.6 µM (inactive), the GI50 [14] was 13.7 µM (inactive) and the GI50 [15] was 14.9 µM (inactive). For the same compound, the GI50 [16] was 7.11 µM (inactive), the GI50 [17] was 15.5 µM (inactive) and the GI50 [18] was 11.5 µM (inactive). For the same compound, the GI50 [19] was 13.4 µM (inactive), the GI50 [20] was 14.2 µM (inactive) and the GI50 [21] was 14.1 µM (inactive). The GI50 [22] was 14.8 µM (inactive), the GI50 [23] was 20.3 µM (inactive) and the GI50 [24] was 16 µM (inactive). The GI50 [25] was 13.2 µM (inactive), the GI50 [26] was 14.6 µM (inactive) and the GI50 [27] was 26.9 µM (inactive). The GI50 [28] was 17.7 µM (inactive), the GI50 [29] was 11.5 µM (inactive) and the GI50 [30] was 18 µM (inactive). The GI50 [31] was 7.74 µM (inactive), the GI50 [32] was 15.8 µM (inactive) and the GI50 [33] was 24.7 µM (inactive). For the same compound, the GI50 [34] was 15.9 µM (inactive), the GI50 [35] was 11.1 µM (inactive) and the GI50 [36] was 13.9 µM (inactive). The GI50 [37] was 7.87 µM (inactive), the GI50 [38] was 18 µM (inactive) and the GI50 [39] was 20.4 µM (inactive). For the same compound, the GI50 [40] was 17.3 µM (inactive), the GI50 [41] was 16 µM (inactive) and the GI50 [42] was 12.7 µM (inactive). For the same compound, the GI50 [43] was 16.5 µM (inactive), the GI50 [44] was 15.9 µM (inactive) and the GI50 [45] was 16.8 µM (inactive). For the same compound, the GI50 [46] was 14 µM (inactive), the GI50 [47] was 18.1 µM (inactive) and the GI50 [48] was 6.61 µM (inactive). For the same compound, the GI50 [49] was 4.93 µM (inactive), the GI50 [50] was 12.2 µM (inactive) and the GI50 [51] was 14.3 µM (inactive). For the same compound, the GI50 [52] was 16 µM (inactive) and the GI50 [53] was 14.3 µM (inactive).
With `[N-]=[N+]=CC(=O)OC(CCl)CCl` the GI50 [1] was > 100 µM (inactive), the GI50 [2] was > 100 µM (inactive) and the GI50 [4] was > 100 µM (inactive). For the same compound, the GI50 [5] was > 100 µM (inactive), the GI50 [54] was > 10 µM (inactive) and the GI50 [7] was > 100 µM (inactive). The GI50 [8] was > 100 µM (inactive), the GI50 [9] was > 100 µM (inactive) and the GI50 [55] was > 100 µM (inactive). The GI50 [10] was > 100 µM (inactive), the GI50 [11] was > 100 µM and the GI50 [12] was > 100 µM (inactive). For the same compound, the GI50 [13] was > 100 µM (inactive), the GI50 [14] was > 100 µM (inactive) and the GI50 [15] was > 100 µM (inactive). For the same compound, the GI50 [17] was > 100 µM (inactive), the GI50 [18] was > 100 µM (inactive) and the GI50 [19] was > 100 µM (inactive). For the same compound, the GI50 [20] was 76 µM (inactive), the GI50 [22] was > 100 µM (inactive) and the GI50 [23] was > 100 µM (inactive). The GI50 [24] was > 100 µM (inactive), the GI50 [56] was > 100 µM (inactive) and the GI50 [25] was > 100 µM (inactive). For the same compound, the GI50 [26] was > 100 µM (inactive), the GI50 [27] was > 100 µM (inactive) and the GI50 [28] was > 100 µM (inactive). The GI50 [57] was 25.2 µM (inactive), the GI50 [29] was > 100 µM (inactive) and the GI50 [31] was > 100 µM (inactive). For the same compound, the GI50 [32] was > 100 µM (inactive), the GI50 [33] was > 100 µM (inactive) and the GI50 [35] was > 100 µM (inactive). For the same compound, the GI50 [36] was > 100 µM (inactive), the GI50 [37] was > 100 µM (inactive) and the GI50 [38] was > 100 µM (inactive). The GI50 [39] was > 100 µM (inactive), the GI50 [40] was > 100 µM (inactive) and the GI50 [41] was > 100 µM (inactive). The GI50 [42] was 46.3 µM (inactive), the GI50 [43] was > 100 µM (inactive) and the GI50 [44] was > 100 µM (inactive). The GI50 [45] was > 100 µM (inactive), the GI50 [46] was 37.5 µM (inactive) and the GI50 [47] was > 100 µM (inactive). For the same compound, the GI50 [49] was > 100 µM (inactive), the GI50 [50] was > 100 µM (inactive) and the GI50 [51] was > 100 µM (inactive). For the same compound, the GI50 [52] was > 100 µM (inactive) and the GI50 [53] was > 100 µM (inactive).
